# Values quoted from earlier work in patent US9034354B2, “Bacteriostatic and anti-collagenolytic dental materials through the incorporation of polyacrylic acid modified CuI nanoparticles” (MUSC Foundation for Research Development, priority 2012, dated 2015).
# Test system: Streptococcus mutans
# Conditions: discs of composite resin containing MDPB versus discs without MDPB, in the presence of Streptococcus mutans
compound,measurement,value
"C=C(C)C(=O)OCCCCCCCCCCCC[n+]1ccccc1.[Br-] [MDPB, 12-methacryloyloxydodecylpyridinium bromide]",numbers of bacteria recovered from the discs reduced by,97%
